Results as given in patent US20230000088A1, “USE OF ALGINATES OLIGOMERS TO IMPROVE PLANT PROTECTION AGAINST PATHOGENS” (Université de Bourgogne, priority 2019, published 2023).

System: P. viticola
Experiment: Protection of greenhouse vine plants against downy mildew (sporulating leaf area, leaf disks, 6 dpi)
Type: in vivo, Plasmopara viticola
Details: A1 1 g/L, Pip 0.1 mM, alone or combined, FIG. 5
Procedure: Grapevine (V. vinifera cv. Marselan) herbaceous cuttings were grown in individual pots (10×7×7 cm) containing a mixture of peat and perlite (4:1, vol/vol) in a greenhouse at 25±4 and 18±7° C. (day and night, respectively) until they developed 6-8 leaves. Artificial illumination was supplemented when the natural light was less than 200 μmol. m.^−2 s^−1 during the 16 h light period. Plants were watered with a fertilization solution (Topfert2 Plantin. France).
Alginates A1, A2, A3 with a degree of polymerization (DP) of 491, 228, 355 respectively were used. They were prepared at 1, 2 and 4 g/L in ultrapure water and applied to both the upper and lower faces of leaves until the point of run-off using a manual sprayer. Plants were maintained in the greenhouse in the conditions described above. Ultrapure water was used as negative control and sprayed in the same manner. […]
Briefly, 6 days post-inoculation (dpi), leaf disks were punched out and placed with the abaxial side uppermost, on a moist Whatman paper, in a closed plastic box. […] Disease intensity was assessed by measuring the leaf area covered by the pathogen sporulation using a “macro” developed for the image analysis Visilog 6.9 software (Noesis, France; Kim Khiook et al., 2013) and the disease reduction rate is calculated as follows: (1−(treated sporulating area/control sporulating area))×100. […]

Structure (SMILES): O=C(O)C1CCCCN1 (stereo not shown) [Pip, pipecolic acid]
- rate protection against P. viticola: around 35%
